Measured values taken from paper PMC8330742, “New benzothieno[2,3-c]pyridines as non-steroidal CYP17 inhibitors: design, synthesis, anticancer screening, apoptosis induction, and in silico ADME profile studies” (Journal of Enzyme Inhibition and Medicinal Chemistry, 2021).

What was measured:
[1] = tested on: SN12C; test: NCI-60 SRB screen; format: cell-based, human; conditions: Homo sapiens, SN12C; SN 12 C; single dose 10^−5 M; read-out: Growth inhibition (%)
[2] = tested on: SF-295; test: NCI-60 SRB screen; format: cell-based, human; conditions: Homo sapiens; SF-295; single dose 10^−5 M; read-out: Growth inhibition (%)
[3] = tested on: HCC-2998; test: NCI-60 SRB screen; format: cell-based, human; conditions: Homo sapiens; HCC-2998; single dose 10^−5 M; read-out: Growth inhibition (%)
[4] = tested on: SK-MEL-2; test: NCI-60 SRB screen; format: cell-based, human; conditions: Homo sapiens; SK-MEL-2; single dose 10^−5 M; read-out: Growth inhibition (%)
[5] = tested on: ACHN; test: NCI-60 SRB screen; format: cell-based; conditions: Homo sapiens, single dose 10^−5 M, read-out: Growth inhibition (%)
[6] = tested on: A549/ATCC; test: NCI-60 SRB screen; format: cell-based, human; conditions: Homo sapiens, single dose 10^−5 M, read-out: Growth inhibition (%)
[7] = tested on: UO-31; test: NCI-60 SRB screen; format: cell-based, human; conditions: Homo sapiens; UO-31; single dose 10^−5 M; read-out: Growth inhibition (%)
[8] = tested on: CAKI-1; test: NCI-60 SRB screen; format: cell-based, human; conditions: Homo sapiens; CAKI-1; single dose 10^−5 M; read-out: Growth inhibition (%)
[9] = tested on: 786-0; test: NCI-60 SRB screen; format: cell-based; conditions: Homo sapiens; 786-0; single dose 10^−5 M; read-out: Growth inhibition (%)
[10] = tested on: TK-10; test: NCI-60 SRB screen; format: cell-based, human; conditions: Homo sapiens; TK-10; single dose 10^−5 M; read-out: Growth inhibition (%)
[11] = tested on: HOP-92; test: NCI-60 SRB screen; format: cell-based, human; conditions: Homo sapiens; HOP-92; single dose 10^−5 M; read-out: Growth inhibition (%)
[12] = tested on: MOLT-4; test: NCI-60 SRB screen; format: cell-based; conditions: Homo sapiens; MOLT-4; single dose 10^−5 M; read-out: Growth inhibition (%)
[13] = tested on: SW-620; test: NCI-60 SRB screen; format: cell-based; conditions: Homo sapiens; SW-620; single dose 10^−5 M; read-out: Growth inhibition (%)
[14] = tested on: RXF 393; test: NCI-60 SRB screen; format: cell-based, human; conditions: Homo sapiens; RXF 393; single dose 10^−5 M; read-out: Growth inhibition (%)
[15] = tested on: UACC-62; test: NCI-60 SRB screen; format: cell-based, human; conditions: Homo sapiens; UACC-62; single dose 10^−5 M; read-out: Growth inhibition (%)
[16] = tested on: UACC-257; test: NCI-60 SRB screen; format: cell-based, human; conditions: Homo sapiens, UACC-257; UACC-275 (so in the source); single dose 10^−5 M; read-out: Growth inhibition (%)
[17] = tested on: NCI-H226; test: NCI-60 SRB screen; format: cell-based, human; conditions: Homo sapiens; NCI-H226; single dose 10^−5 M; read-out: Growth inhibition (%)
[18] = tested on: K-562; test: NCI-60 SRB screen; format: cell-based, human; conditions: Homo sapiens, K562; K-562; single dose 10^−5 M; read-out: Growth inhibition (%)
[19] = tested on: SR; test: NCI-60 SRB screen; format: cell-based; conditions: Homo sapiens, single dose 10^−5 M, read-out: Growth inhibition (%)
[20] = tested on: NCI-H460; test: NCI-60 SRB screen; format: cell-based, human; conditions: Homo sapiens; NCI-H460; single dose 10^−5 M; read-out: Growth inhibition (%)
[21] = tested on: EKVX; test: NCI-60 SRB screen; format: cell-based, human; conditions: Homo sapiens, single dose 10^−5 M, read-out: Growth inhibition (%)
[22] = tested on: M14; test: NCI-60 SRB screen; format: cell-based, human; conditions: Homo sapiens; M14; single dose 10^−5 M; read-out: Growth inhibition (%)
[23] = tested on: HOP-62; test: NCI-60 SRB screen; format: cell-based, human; conditions: Homo sapiens; HOP-62; single dose 10^−5 M; read-out: Growth inhibition (%)
[24] = tested on: HL-60(TB); test: NCI-60 SRB screen; format: cell-based, human; conditions: Homo sapiens; HL-60 (TB); single dose 10^−5 M; read-out: Growth inhibition (%)
[25] = tested on: HCT-15; test: NCI-60 SRB screen; format: cell-based, human; conditions: Homo sapiens; HCT-15; single dose 10^−5 M; read-out: Growth inhibition (%)
[26] = tested on: MDA-MB-435; test: NCI-60 SRB screen; format: cell-based; conditions: Homo sapiens, MDA-MB-435, read-out: Growth inhibition (%)
[27] = tested on: NCI-H522; test: NCI-60 SRB screen; format: cell-based, human; conditions: Homo sapiens; NCI-H522; single dose 10^−5 M; read-out: Growth inhibition (%)
[28] = tested on: SK-MEL-28; test: NCI-60 SRB screen; format: cell-based; conditions: Homo sapiens; SK-MEL-28; single dose 10^−5 M; read-out: Growth inhibition (%)
[29] = tested on: SF-268; test: NCI-60 SRB screen; format: cell-based, human; conditions: Homo sapiens; SF-268; single dose 10^−5 M; read-out: Growth inhibition (%)
[30] = tested on: panel of 60 cancer cell lines; test: NCI-60 SRB screen, mean or range over the panel; format: cell-based, human; conditions: Homo sapiens; mean over the cell lines; single dose 10^−5 M; read-out: Mean growth inhibition (%)
[31] = tested on: KM12; test: NCI-60 SRB screen; format: cell-based, human; conditions: Homo sapiens; KM12; single dose 10^−5 M; read-out: Growth inhibition (%)
[32] = tested on: SK-OV-3; test: NCI-60 SRB screen; format: cell-based, human; conditions: Homo sapiens; SK-OV-3; single dose 10^−5 M; read-out: Growth inhibition (%)
[33] = tested on: NCI/ADR-RES; test: NCI-60 SRB screen; format: cell-based, human; conditions: Homo sapiens, single dose 10^−5 M, read-out: Growth inhibition (%)
[34] = tested on: OVCAR-4; test: NCI-60 SRB screen; format: cell-based, human; conditions: Homo sapiens; OVCAR-4; single dose 10^−5 M; read-out: Growth inhibition (%)
[35] = tested on: IGROV1; test: NCI-60 SRB screen; format: cell-based, human; conditions: Homo sapiens, IGROV-1; IGROV1; single dose 10^−5 M; read-out: Growth inhibition (%)
[36] = tested on: OVCAR-3; test: NCI-60 SRB screen; format: cell-based, human; conditions: Homo sapiens; OVCAR-3; single dose 10^−5 M; read-out: Growth inhibition (%)
[37] = tested on: HT-29; test: NCI-60 SRB screen; format: cell-based; conditions: Homo sapiens; HT-29; single dose 10^−5 M; read-out: Growth inhibition (%)
[38] = tested on: HCT-116; test: NCI-60 SRB screen; format: cell-based, human; conditions: Homo sapiens; HCT-116; single dose 10^−5 M; read-out: Growth inhibition (%)
[39] = tested on: OVCAR-8; test: NCI-60 SRB screen; format: cell-based, human; conditions: Homo sapiens; OVCAR-8; single dose 10^−5 M; read-out: Growth inhibition (%)
[40] = tested on: NCI-H23; test: NCI-60 SRB screen; format: cell-based, human; conditions: Homo sapiens; NCI-H23; single dose 10^−5 M; read-out: Growth inhibition (%)
[41] = tested on: LOX IMVI; test: NCI-60 SRB screen; format: cell-based, human; conditions: Homo sapiens, single dose 10^−5 M, read-out: Growth inhibition (%)
[42] = tested on: SK-MEL-5; test: NCI-60 SRB screen; format: cell-based, human; conditions: Homo sapiens; SK-MEL-5; single dose 10^−5 M; read-out: Growth inhibition (%)
[43] = tested on: NCI-H322M; test: NCI-60 SRB screen; format: cell-based, human; conditions: Homo sapiens, single dose 10^−5 M, read-out: Growth inhibition (%)
[44] = tested on: COLO 205; test: NCI-60 SRB screen; format: cell-based, human; conditions: Homo sapiens; COLO 205; single dose 10^−5 M; read-out: Growth inhibition (%)

O=C1C(=Cc2ccccc2[N+](=O)[O-])Sc2c(F)cccc21 [Compound 2c, 7-Fluoro-2-(2-nitrobenzylidene)[1]benzothiophen-3(2H)-one]
inhibition at 10 µM [1]: 7.57% | inhibition at 10 µM [2]: 27% | inhibition at 10 µM [3]: -11.4% | inhibition at 10 µM [4]: -9.11% | inhibition at 10 µM [5]: 7.28% | inhibition at 10 µM [6]: 4.91% | inhibition at 10 µM [7]: 29.9% | inhibition at 10 µM [8]: 85.1% | inhibition at 10 µM [9]: -11% | inhibition at 10 µM [10]: -30.9% | inhibition at 10 µM [11]: -11.4% | inhibition at 10 µM [12]: 19.8% | inhibition at 10 µM [13]: 68.8% | inhibition at 10 µM [14]: -3.1% | inhibition at 10 µM [15]: 60.9% | inhibition at 10 µM [16]: 78.8% | inhibition at 10 µM [17]: 23.5% | inhibition at 10 µM [18]: 67.8% | inhibition at 10 µM [19]: 37.2% | inhibition at 10 µM [20]: 59.2% | inhibition at 10 µM [21]: 15.6% | inhibition at 10 µM [22]: -1.11% | inhibition at 10 µM [23]: 20.4% | inhibition at 10 µM [24]: 28.8% | inhibition at 10 µM [25]: -1.05% | inhibition at 10 µM [26]: -12.1% | inhibition at 10 µM [27]: 2.94% | inhibition at 10 µM [28]: -4.83% | inhibition at 10 µM [29]: 5.43% | inhibition at 10 µM [30]: 11.5% | inhibition at 10 µM [31]: 3.27% | inhibition at 10 µM [32]: 2.42% | inhibition at 10 µM [33]: 13.5% | inhibition at 10 µM [34]: 40.5% | inhibition at 10 µM [35]: 66.5% | inhibition at 10 µM [36]: 70.8% | inhibition at 10 µM [37]: -7.17% | inhibition at 10 µM [38]: 80.5% | inhibition at 10 µM [39]: 6.75% | inhibition at 10 µM [40]: 13.3% | inhibition at 10 µM [41]: 11.1% | inhibition at 10 µM [42]: 8.44% | inhibition at 10 µM [43]: 1.98% | inhibition at 10 µM [44]: -6.61%

COc1ccc(C2NC(=O)C(Cl)c3c2sc2c(F)cccc32)c(OC)c1 (stereo not shown) [Compound 4a, 4-Chloro-1-(2,4-Dimethoxyphenyl)-8-fluoro-1,2-dihydro[1]benzothieno [2,3-c]pyridine-3(4H)-one]
inhibition at 10 µM [1]: 9.45% | inhibition at 10 µM [2]: -2.33% | inhibition at 10 µM [3]: -7.97% | inhibition at 10 µM [4]: -23.2% | inhibition at 10 µM [5]: 12.4% | inhibition at 10 µM [6]: -4.25% | inhibition at 10 µM [7]: 40.3% | inhibition at 10 µM [8]: 27.5% | inhibition at 10 µM [9]: 4.93% | inhibition at 10 µM [10]: -25.5% | inhibition at 10 µM [11]: 9.64% | inhibition at 10 µM [12]: 4.69% | inhibition at 10 µM [13]: -0.16% | inhibition at 10 µM [14]: -0.71% | inhibition at 10 µM [15]: 10.9% | inhibition at 10 µM [16]: -12.8% | inhibition at 10 µM [17]: 13.6% | inhibition at 10 µM [18]: 12.5% | inhibition at 10 µM [19]: 36.6% | inhibition at 10 µM [20]: -1.09% | inhibition at 10 µM [21]: 2.22% | inhibition at 10 µM [22]: 3.25% | inhibition at 10 µM [23]: 9.42% | inhibition at 10 µM [24]: 0.73% | inhibition at 10 µM [25]: -9.27% | inhibition at 10 µM [26]: 8.55% | inhibition at 10 µM [27]: 8.58% | inhibition at 10 µM [28]: -1.74% | inhibition at 10 µM [29]: 9.64% | inhibition at 10 µM [30]: 1.85% | inhibition at 10 µM [31]: 3.86% | inhibition at 10 µM [32]: 0.53% | inhibition at 10 µM [33]: -5.94% | inhibition at 10 µM [34]: -1.63% | inhibition at 10 µM [35]: 10.3% | inhibition at 10 µM [36]: 1.99% | inhibition at 10 µM [37]: -10.5% | inhibition at 10 µM [38]: -2.4% | inhibition at 10 µM [39]: -0.71% | inhibition at 10 µM [40]: 1.72% | inhibition at 10 µM [41]: 4.84% | inhibition at 10 µM [42]: -1.74% | inhibition at 10 µM [43]: -4.72% | inhibition at 10 µM [44]: -16.7%
